In US20250059166A1, “PIPERIDINYLPYRIDINYLCARBONITRILE DERIVATIVES AS INHIBITORS OF GLUTAMINYL-PEPTIDE CYCLOTRANSFERASE AND GLUTAMINYL-PEPTIDE CYCLOTRANSFERASE LIKE PROTEIN” (Boehringer Ingelheim International GmbH, priority 2023, published 2025):

Assays:
[1] = Assay C: permeability in CACO-2 cells; assay type: in vitro ADME; settings: human, pH 7.2, compounds of the invention; for efflux ratio at 2 h: Caco-2, permeability B-A / permeability A-B; for Papp A→B at 2 h: Caco-2, apical to basolateral
Experimental: Caco-2 cells (1-2×10^5 cells/1 cm^2 area) are seeded on filter inserts (Costar transwell polycarbonate or PET filters, 0.4 μm pore size) and cultured (DMEM) for 10 to 25 days. Compounds are dissolved in appropriate solvent (like DMSO, 1-20 mM stock solutions). […] The transport solution (TL) is applied to the apical or basolateral donor side for measuring A-B or B-A permeability (3 filter replicates), respectively. Samples are collected at the start and end of experiment from the donor and at various time intervals for up to 2 hours also from the receiver side for concentration measurement by HPLC-MS/MS or scintillation counting. Sampled receiver volumes are replaced with fresh receiver solution.
Efflux ratio(ER)=permeabilityB−A/permeabilityA−B

[2] = system: SIRPα signalling induced by A549 cells; assay: Assay B: SIRPα signalling assay using A549 cells; assay type: cell-based; settings: Homo sapiens; compounds of the invention; A549 cells 48 h, Jurkat PathHunter SIRPαV1 reporter cells 5 h; read-out: Inhibition of SIRPα signalling induced by A549 cells: IC50
Experimental: (§1) Two cell types are independently used: the Raji cell line (lymphoblast-like human cell line derived from B lymphocytes from a Burkitt's lymphoma patient in 1963) and A549 cells (adenocarcinoma human alveolar basal epithelial cells).
(§2) Test compounds were dissolved in 100% DMSO and serially diluted into a white 384-well microtiter cell culture plate (PerkinElmer #60076780 in case of Raji assay; PDL-coated plates Greiner #781945 in case of A549 assay). 5000 Raji cells (ATCC #CC86) or 5000 A549 cells (ATCC #CCL-185) in Assay Complete Cell Plating reagent 30 (DiscoverX 93-0563R30B) were added per well. The assay plate was incubated for 48 h at 37° C., 95% humidity and 5% CO2. 15000 reporter cells (Jurkat PathHunter SIRPαV1, DiscoverX #93-1135C19) were added to each well, and the plate was incubated for 5 h at 37° C., 95% humidity and 5% CO2. Bioassay reagent 1 of the PathHunter Bioassay detection kit (DiscoverX 93-0001) was added to each well of the plate using a multichannel pipette followed by a 15 min incubation at room temperature. Afterwards bioassay reagent 2 was added followed by 60 min incubation at room temperature (incubation in the dark).
(§3) The analysis of the data was performed using the luminescence signal generated by beta-galactosidase in the PathHunter reporter cell line. The luminescence measurement was done using a Pherastar Multi-Mode Reader. Dose-response curves & IC50 data were calculated with 4-parameter sigmoidal dose response formula.

QPCTL = molecular target: T1, QPCTL (Homo sapiens, UniProt Q9NXS2); assay: Assay A: biochemical QPCTL activity assay (MALDI-TOF MS, CD47 peptide substrate); settings: compounds of the invention; 0.5 nM enzyme, 10 μM CD47 peptide substrate; read-out: Inhibition of QPCTL: IC50
T1 construct: made in house
Experimental: (§4) QPCT or QPCTL dependent conversion of N-terminal glutamine to pyroglutamate of CD47 was monitored via MALDI-TOF MS. Test compounds were dissolved in 100% DMSO and serially diluted into clear 1,536-well microtiter plates. Enzymatic reactions were set up in assay buffer containing 20 mM Tris pH 7.5, 0.1 mM TCEP, 0.01% BSA, and 0.001% Tween20. […] The plates were incubated for 10 min in a humidified incubator at 24° C. Subsequently, 2.5 μL of CD47 peptide substrate surrogate (^19[…]^33) was added to each well (final concentration: 10 μM for QPCTL/20 μM for QPCT). The plates were mixed for 30 sec at 1,000 rpm and subsequently incubated for 40 min in a humidified incubator at 24° C. […] The plates were sealed with an adhesive foil, mixed for 30 s at 1,000 rpm and stored at room temperature until preparation of the MALDI target plates. […] QPCT or QPCTL activity was monitored by calculating the ratio between product and internal standard signals followed by normalization to high (100% activity) and low (0% activity) controls. Determination of compound potencies was obtained by fitting the dose-response data to a four-parameter logistical equation.

[3] = system: SIRPα signalling induced by Raji cells; assay: Assay B: SIRPα signalling assay using Raji cells; assay type: cell-based; settings: Homo sapiens; compounds of the invention; Raji cells 48 h, Jurkat PathHunter SIRPαV1 reporter cells 5 h; read-out: Inhibition of SIRPα signalling induced by Raji cells: IC50
Experimental: as §1, §2, §3

QPCT = molecular target: T2, QPCT (Homo sapiens, UniProt Q16769); assay: Assay A: biochemical QPCT activity assay (MALDI-TOF MS, CD47 peptide substrate); settings: compounds of the invention; 0.5 nM enzyme, 20 μM CD47 peptide substrate; read-out: Inhibition of QPCT: IC50
T2 construct: purchased Origine (so in the source)
Experimental: as §4

T1 sequence (Q9NXS2 whole entry): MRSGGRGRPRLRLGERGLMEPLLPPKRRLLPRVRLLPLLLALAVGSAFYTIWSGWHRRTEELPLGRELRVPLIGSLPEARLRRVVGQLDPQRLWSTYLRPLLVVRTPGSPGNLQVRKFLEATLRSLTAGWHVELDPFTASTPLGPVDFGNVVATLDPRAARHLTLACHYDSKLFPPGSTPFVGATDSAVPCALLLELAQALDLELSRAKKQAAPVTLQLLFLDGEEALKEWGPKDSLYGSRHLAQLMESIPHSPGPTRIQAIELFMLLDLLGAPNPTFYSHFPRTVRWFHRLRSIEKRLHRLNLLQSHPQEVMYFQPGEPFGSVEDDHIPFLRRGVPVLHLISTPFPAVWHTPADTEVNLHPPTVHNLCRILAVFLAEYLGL
T2 sequence (Q16769 29-361): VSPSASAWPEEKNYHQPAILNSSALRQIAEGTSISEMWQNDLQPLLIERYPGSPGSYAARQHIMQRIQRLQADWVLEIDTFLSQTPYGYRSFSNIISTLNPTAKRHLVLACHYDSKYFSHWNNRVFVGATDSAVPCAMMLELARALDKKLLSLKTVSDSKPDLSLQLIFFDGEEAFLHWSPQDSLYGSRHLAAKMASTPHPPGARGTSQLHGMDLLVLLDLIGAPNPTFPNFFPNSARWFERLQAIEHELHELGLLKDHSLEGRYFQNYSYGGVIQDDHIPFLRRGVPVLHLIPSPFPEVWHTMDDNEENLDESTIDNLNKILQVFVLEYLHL

Row | SMILES | efflux ratio at 2 h [1] | Papp A→B at 2 h [1] [×10⁻⁶ cm/s] | IC50 [2] [nM] | IC50 (QPCTL) [nM] | IC50 [3] [nM] | IC50 (QPCT) [nM]
1 | Cn1cnnc1C1(F)CCN(c2c(C#N)ccnc2-c2cnc(F)cc2Cl)CC1 [Example 22] | 1.6 | 34 | 218 | 5 | 435 | 15
2 | Cn1cnnc1C1(F)CCN(c2c(C#N)ccnc2-n2cnc3nc(C(F)(F)F)ccc32)CC1 [Example 24] | 14.1 | 1 | 349 | 7 | 321 | 11
3 | Cc1cc(C#N)c(N2CCC(F)(c3nncn3C)CC2)c(-c2cnc3nn(C(C)(C)C)c(F)c3c2)n1 [Example 25] | 9.9 | 7.6 | 7 | 1 | 9 | 1
4 | Cc1cc(C#N)c(N2CCC(F)(c3nncn3C)CC2)c(-c2cnc3nn(C(C)(C)C)c(Cl)c3c2)n1 [Example 26] | 4.2 | 20 | 13 | < 1 | 6 | < 1
5 | Cc1cc(C#N)c(N2CCC(F)(c3nncn3C)CC2)c(-c2cnc3nn(C(C)(C)C)c(C(F)(F)F)c3c2)n1 [Example 27] | 2.4 | 38 | 34 | 2 | 26 | 2
6 | Cn1cnnc1C1(F)CCN(c2c(C#N)cc(C3CC3)nc2-c2cnc3nn(C(C)(C)C)cc3c2)CC1 [Example 28] | 3.8 | 19 | 12 | 1 | 7 | < 1
7 | Cn1cnnc1C1(F)CCN(c2c(C#N)cc(C3CC3)nc2-c2cnc3nn(C(C)(C)C)c(F)c3c2)CC1 [Example 29] | 2.7 | 29 | 45 | 1 | 17 | 1
8 | CC(C)n1nc2ncc(-c3nc(C4CC4)cc(C#N)c3N3CCC(F)(c4nncn4C)CC3)cc2c1F [Example 30] | 9.4 | 9.4 | 20 | 1 | 25 | 1
9 | Cn1cnnc1C1(F)CCN(c2c(C#N)cc(C3CC3)nc2-c2ccc(F)nc2)CC1 [Example 31] | 1.4 | 62 | 41 | 2 | 87 | 4
10 | Cn1cnnc1C1(F)CCN(c2c(C#N)cc(C(C)(F)F)nc2-c2cnc3nn(C(C)(C)C)cc3c2)CC1 [Example 32] | 8.2 | 8.2 | 21 | 1 | 4 | 1
11 | Cn1cnnc1C1(F)CCN(c2c(C#N)cc(C(C)(F)F)nc2-c2cnc3nn(C(C)(C)C)c(F)c3c2)CC1 [Example 33] | 2.2 | 31 | 26 | 1 | 13 | 1
12 | Cn1cnnc1C1(F)CCN(c2c(C#N)cc(C(C)(F)F)nc2-c2ccc(F)nc2)CC1 [Example 34] | 1.7 | 23 | 20 | 2 | 37 | 6
13 | Cn1cnnc1C1(F)CCN(c2c(C#N)cc(C(F)F)nc2-c2ccc(F)nc2)CC1 [Example 35] | 3.6 | 17 | 43 | 3 | 154 | 10
14 | Cn1cnnc1C1(F)CCN(c2c(C#N)cc(Cl)nc2-c2cnc3nn(C(C)(C)C)cc3c2)CC1 [Example 36] | 13.3 | 5.8 | 13 | 1 | 9 | < 1
15 | Cn1cnnc1C1(F)CCN(c2c(C#N)cc(Cl)nc2-c2ccc(F)nc2)CC1 [Example 37] | 2.2 | 23 | 35 | 2 | 95 | 6
16 | Cn1cnnc1C1(F)CCN(c2c(-c3cnc4nn(C(C)(C)C)cc4c3)ncc(Cl)c2C#N)CC1 [Example 38] | 10.9 | 6.6 | 6 | 1 | 21 | < 1
17 | Cn1cnnc1C1(F)CCN(c2c(-c3ccc(F)nc3)ncc(Cl)c2C#N)CC1 [Example 39] | 2.9 | 16 | 106 | 3 | 247 | 6
18 | Cn1cnnc1C1(F)CCN(c2c(-c3ccc(F)nc3)ncc(C(F)(F)F)c2C#N)CC1 [Example 40] | 2.8 | 18 | 115 | 4 | 258 | 5
19 | Cc1cnc(-c2ccc(F)nc2)c(N2CCC(F)(c3nncn3C)CC2)c1C#N [Example 41] | 2.6 | 28 | 16 | 1 | 71 | 2
